# Experiments:
# [1] = target: CBFβ binding to the RUNX1 Runt domain (Homo sapiens (Human), UniProt Q13951); assay: FRET assay, inhibition of CBFβ binding to the RUNX1 Runt domain; details: inhibition of wild-type CBFβ binding to the RUNX1 Runt domain; NA = not active
# Source text: Fluorescence Resonance Energy Transfer (FRET) Assay:
# As described in U.S. Pat. No. 8,748,618 and published PCT application WO2010/132684, a FRET assay can be used to effectively monitor the inhibition of CBF binding to the Runt domain of RUNX proteins (as well as for CBFβ-SMMHC binding to the Runt domain of RUNX proteins). For the assay, the green fluorescent protein derivative Cerulean is fused to the N-terminus of the Runt domain and the green fluorescent protein derivative Venus to the N-terminus of CBFβ (Gorczynski, M. J., J. Grembecka, et al. (2007), “Allosteric inhibition of the protein-protein interaction between the leukemia-associated proteins Runx1 and CBFbeta.” Chem Biol 14(10): 1186-97), or to CBFβ-SMMHC (Illendula, A. et al. Chemical biology. A small-molecule inhibitor of the aberrant transcription factor CBFbeta-SMMHC delays leukemia in mice. Science 347, 779-784, doi:10.1126/science.aaa0314 (2015)). The ratio of the emission intensities at 525 nm and 474 nm, measured after excitation at 433 nm, was used as the readout in this assay. The dynamic range for the FRET assay was determined by adding a 30-fold excess of untagged CBFβ (or CBFβ-SMMHC) to the assay and the associated change in the FRET ratio was defined as 100% inhibition.
# [2] = target: binding of CBFβ to RUNX1 in SEM cells (Homo sapiens (Human), UniProt Q13951); assay: Co-immunoprecipitation of CBFβ with RUNX1 in SEM cells; format: cell-based; details: 10 μM, 6 hours
# Description: To test whether the wild-type CBFβ Inhibitors can disrupt the binding of CBFβ to RUNX1 in cells, co-immunoprecipitation experiments were performed in the SEM cell line. Co-immunoprecipitation assays of lysates from […] SEM cells were treated with Al-4-88^1, Al-10-47, Al-10-104, Al-12-126 and Al-14-91 at 10 μM for 6 hours. RUNX1-bound CBFβ protein levels and immunoprecipitated RUNX1 are shown on the top panel of FIG. 2A. Quantification of RUNX1 bound CBFβ is shown on the bottom graph.
# [3] = Aqueous solubility in 0.25% DMSO by NMR spectroscopy; format: physicochemical; details: aqueous, kinetic from dmso stock; 0.25% DMSO, NMR spectroscopy; read-out: aqueous solubility
# Description: Al-10-104, Al-12-126, and Al-14-91 were all soluble at concentrations above 100 μM. […] As the Runt domain is highly conserved among all three RUNX family members, we would expect to see similar effects on binding to RUNX2 or RUNX3. Therefore, the action of the inhibitors will likely affect the activity of all three RUNX family members.
# [4] = Sedative effects and tolerability in mice after IP administration; format: in vivo; details: intraperitoneal (IP) injection
# Source text: “NA” indicates not active. […] Reasoning that this effect depended on the ability of the compound to cross the blood brain barrier (BBB), compounds Al-12-126 and Al-14-91 have appended morpholine ring substituents to the 5 position of the pyridine ring to increase the polarity of the compounds and thereby limit BBB penetration.
# [5] = tested on: T-ALL cell lines; assay: Apoptosis in T-ALL cell lines; format: cell-based, human
# [6] = tested on: primary T-ALL patient samples; assay: Apoptosis of primary T-ALL patient samples; format: cell-based, human
# [7] = tested on: MLL-AF4 leukemia cells; assay: Cell death of MLL-AF4 leukemia cells; format: cell-based, human
# [8] = tested on: MCF10A-5E cells; assay: Multiacini formation in 3D culture of MCF10A-5E cells; format: cell-based; details: shRUNX1 or control cells, 3D culture 10-11 days, compared to carrier control or Al-4-88
# Source text: CBFβ inhibitors altered acinar morphogenesis of the basal-like (triple negative) breast epithelial cells and blocked survival of basal-like breast cancer cells in 3D organotypic culture. To evaluate whether CBFβ inhibition would influence the multicellular organization of basal-like breast epithelia, 3D culture of MCF10A-5E cells was used. Knockdown of RUNX1 in these cells delayed proliferation arrest and promoted the formation of nonspherical acini, indicating a role for RUNX1 during morphogenesis.
# The multiacini resulting from CBFβ inhibition were not radially symmetric, thereby arguing against a general defect in cell polarity or proliferation arrest. Instead, the inhibitors appeared to be initiating a nascent branching program that is reminiscent of when TGFβ-family signaling is impaired.
# FIG. 9A: MCF10A-5E cells stably expressing shRUNX1 or shGFP control were grown in 3D culture for 10-11 days with the indicated compounds and imaged by Brightfield microscopy. The total number of multiacini per chamber was counted and scaled to the shGFP DMSO control. Data are shown as the mean±SEM of eight independent cultures.
# [9] = tested on: lung cancer cell lines; assay: MTT growth assay, several lung cancer cell lines; format: cell-based
# Description: (§1) Activity of Al-10-104 was tested using several lung cancer cell lines and one immortalized, non-transformed lung cell line. […] Data for the squamous cell carcinoma of the lung cell line H520 and the immortalized normal lung epithelial cell line BEAS-2B are shown in FIG. 10.
# [10] = tested on: BEAS-2B normal lung cells; assay: MTT growth assay, BEAS-2B cells; format: cell-based; details: 10 μM, 72 hrs
# Description: as §1
# H520 cells were cultured in RPMI 1640 medium, supplemented with fetal bovine serum (10% final concentration), Hepes (1%), and sodium priruvate (1%). The MTT assay used 4×10^5/ml cells. BEAS-2B cells were cultured in DMEM medium with fetal bovine serum (10% final concentration). The MTT assay for the BEAS-2B cell line was performed using 3.5×10^5/ml cells.
# Al-4-88 had no effect on either cell line.
# [11] = tested on: OVCAR8 ovarian cancer cells; assay: CellTiter-Glo viability assay, OVCAR8; format: cell-based; details: Homo sapiens, OVCAR-8, OVCAR8, 72 hours
# Description: (§2) OVCAR8 cells were grown in RPMI 1640 supplemented with 10% Fetal bovine serum and 1% antibiotics. OVCAR4 cells were grown in RPMI 1640 supplemented with 20% fetal bovine serum and 1% antibiotics. Cells growing at approximately 70% confluency were trypsinized and 2500 cells per well were re-plated in opaque bottomed 96-well plates.
# (§3) 24 hours after plating, chemical compounds diluted in DMSO were mixed with cell growth media and added to cells. Compounds mixed with media were made at 10× concentration. Cells treated with compounds were incubated for 72 hours in a humidified incubator at 37° C. supplemented with 5% CO2. Percentage of cells viable after 72 hours was determined by CellTitler-Glo according to the manufacturer's instructions. Data analysis was performed using GraphPad 5.0.
# (§4) In the graph, the ordinate represents % inhibition and the abscissa represents the log value of the concentration of the compound.
# [12] = tested on: OVCAR4 ovarian cancer cells; assay: CellTiter-Glo viability assay, OVCAR4; format: cell-based; details: Homo sapiens, OVCAR-4, OVCAR4, 72 hours
# Description: as §2, §3, §4
# Chain of CBFβ binding to the RUNX1 Runt domain (Q13951 1-141): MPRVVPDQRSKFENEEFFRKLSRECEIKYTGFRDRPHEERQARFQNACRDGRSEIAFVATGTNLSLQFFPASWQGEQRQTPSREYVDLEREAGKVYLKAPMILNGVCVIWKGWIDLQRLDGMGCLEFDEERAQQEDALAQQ
# Chain of binding of CBFβ to RUNX1 in SEM cells (Q13951 whole entry): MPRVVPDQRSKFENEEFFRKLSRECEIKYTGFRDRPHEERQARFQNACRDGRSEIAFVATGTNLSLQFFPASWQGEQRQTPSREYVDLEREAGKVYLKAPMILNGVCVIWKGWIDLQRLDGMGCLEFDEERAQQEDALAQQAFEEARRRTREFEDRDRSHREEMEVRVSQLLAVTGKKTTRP
smiles,measurement,setting,value
COc1cccnc1-c1nc2cc(OC(F)(F)F)ccc2[nH]1 [Al-10-104],IC50,[1],2.65 ± 0.18 µM
same,RUNX1-bound CBFβ (co-immunoprecipitation),[2],reduction in binding
same,solubility,[3],> 100 µM
same,sedative effects,[4],significant sedative effects that were lethal at high doses
same,apoptosis,[5],induced apoptosis
same,apoptosis,[6],induced apoptosis
same,cell death,[7],induced cell death
same,formation of multiacinar structures,[8],dramatic increase
same,growth inhibition (MTT assay),[9],growth inhibition
same,cell growth (MTT assay),[10],no effect
same,IC50,[11],4.84 µM
same,IC50,[12],5.86 µM
